Assay results as given in PubChem BioAssay (NCI).
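The compound was tested at five concentrations on cells cultured in 96-well plates, with a 48-hour exposure period. The concentration for 50% growth inhibition is given as GI50. Definition used: TGI = concentration required for complete inhibition of growth.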

What was measured:
Assay in all cases: inhibition of tumour cell growth, NCI panel, 48 h
NCI/ADR-RES ovarian = test system: NCI/ADR-RES ovarian
MALME-3M melanoma = test system: MALME-3M melanoma
NCI-H23 lung = test system: NCI-H23 lung
NCI-H522 lung = test system: NCI-H522 lung
SF-539 CNS = test system: SF-539 CNS
SR leukemia = test system: SR leukemia
HS 578T breast = test system: HS 578T breast
HOP-62 NSCLC = test system: HOP-62 NSCLC
SNB-19 CNS = test system: SNB-19 CNS
HT29 colon = test system: HT29 colon
RXF 393 renal = test system: RXF 393 renal
U251 CNS = test system: U251 CNS
PC-3 prostate = test system: PC-3 prostate
786-0 renal = test system: 786-0 renal
MDA-MB-468 breast = test system: MDA-MB-468 breast
SK-MEL-5 melanoma = test system: SK-MEL-5 melanoma
OVCAR-8 ovarian = test system: OVCAR-8 ovarian
COLO 205 colon = test system: COLO 205 colon
MDA-MB-435 = test system: MDA-MB-435
BT-549 breast = test system: BT-549 breast
MOLT-4 leukemia = test system: MOLT-4 leukemia
SK-MEL-28 melanoma = test system: SK-MEL-28 melanoma
HOP-92 NSCLC = test system: HOP-92 NSCLC
LOX IMVI melanoma = test system: LOX IMVI melanoma
K-562 leukemia = test system: K-562 leukemia
DU-145 prostate = test system: DU-145 prostate
CCRF-CEM leukemia = test system: CCRF-CEM leukemia
MCF7 breast = test system: MCF7 breast
SN12C renal = test system: SN12C renal
UACC-257 melanoma = test system: UACC-257 melanoma
HCT-15 colon = test system: HCT-15 colon
A549 NSCLC = test system: A549 NSCLC
KM12 colon = test system: KM12 colon
OVCAR-5 ovarian = test system: OVCAR-5 ovarian
OVCAR-3 ovarian = test system: OVCAR-3 ovarian
CAKI-1 renal = test system: CAKI-1 renal
RPMI-8226 leukemia = test system: RPMI-8226 leukemia
EKVX NSCLC = test system: EKVX NSCLC
T-47D breast = test system: T-47D breast
HCT-116 colon = test system: HCT-116 colon
HCC-2998 colon = test system: HCC-2998 colon
TK-10 renal = test system: TK-10 renal
NCI-H460 lung = test system: NCI-H460 lung
IGROV1 ovarian = test system: IGROV1 ovarian
SF-295 CNS = test system: SF-295 CNS
SW-620 colon = test system: SW-620 colon
M14 melanoma = test system: M14 melanoma
A498 renal = test system: A498 renal
SK-OV-3 ovarian = test system: SK-OV-3 ovarian
UACC-62 melanoma = test system: UACC-62 melanoma
SF-268 CNS = test system: SF-268 CNS
NCI-H226 lung = test system: NCI-H226 lung
OVCAR-4 ovarian = test system: OVCAR-4 ovarian
ACHN renal = test system: ACHN renal
HL-60(TB) leukemia = test system: HL-60(TB) leukemia

COc1c(B(O)O)cc(F)cc1-c1nc2c(F)cc3[nH]ncc3c2c2c1CCCC2
GI50 (NCI/ADR-RES ovarian): 8.18 µM | TGI (NCI/ADR-RES ovarian): > 100 µM | GI50 (MALME-3M melanoma): 14.8 µM | TGI (MALME-3M melanoma): 34.2 µM | GI50 (NCI-H23 lung): 7.03 µM | TGI (NCI-H23 lung): 31.3 µM | GI50 (NCI-H522 lung): 3.66 µM | TGI (NCI-H522 lung): 43.6 µM | GI50 (SF-539 CNS): 0.596 µM | TGI (SF-539 CNS): 12.7 µM | GI50 (SR leukemia): 1.4 µM | TGI (SR leukemia): 11.4 µM | GI50 (HS 578T breast): 0.293 µM | TGI (HS 578T breast): 63.9 µM | GI50 (HOP-62 NSCLC): 2.95 µM | TGI (HOP-62 NSCLC): 54 µM | GI50 (SNB-19 CNS): 3.46 µM | TGI (SNB-19 CNS): 66.4 µM | GI50 (HT29 colon): 14.6 µM | TGI (HT29 colon): > 100 µM | GI50 (RXF 393 renal): 0.0887 µM | TGI (RXF 393 renal): 1.9 µM | GI50 (U251 CNS): 5.34 µM | TGI (U251 CNS): > 100 µM | GI50 (PC-3 prostate): 4.9 µM | TGI (PC-3 prostate): > 100 µM | GI50 (786-0 renal): 2.02 µM | TGI (786-0 renal): 18.7 µM | GI50 (MDA-MB-468 breast): 11.7 µM | TGI (MDA-MB-468 breast): 39.9 µM | GI50 (SK-MEL-5 melanoma): 14.4 µM | TGI (SK-MEL-5 melanoma): 33.2 µM | GI50 (OVCAR-8 ovarian): 4.82 µM | TGI (OVCAR-8 ovarian): > 100 µM | GI50 (COLO 205 colon): 4.85 µM | TGI (COLO 205 colon): 19.3 µM | GI50 (MDA-MB-435): 13.8 µM | TGI (MDA-MB-435): 34.2 µM | GI50 (BT-549 breast): 0.0845 µM | TGI (BT-549 breast): 6.85 µM | GI50 (MOLT-4 leukemia): 2.75 µM | TGI (MOLT-4 leukemia): 30.9 µM | GI50 (SK-MEL-28 melanoma): 13.1 µM | TGI (SK-MEL-28 melanoma): 38.4 µM | GI50 (HOP-92 NSCLC): 0.0199 µM | TGI (HOP-92 NSCLC): 86.5 µM | GI50 (LOX IMVI melanoma): 2.43 µM | TGI (LOX IMVI melanoma): 16.5 µM | GI50 (K-562 leukemia): 19.1 µM | TGI (K-562 leukemia): > 100 µM | GI50 (DU-145 prostate): 6.53 µM | TGI (DU-145 prostate): 56.4 µM | GI50 (CCRF-CEM leukemia): 3.07 µM | TGI (CCRF-CEM leukemia): 80.3 µM | GI50 (MCF7 breast): 3.83 µM | TGI (MCF7 breast): 23.1 µM | GI50 (SN12C renal): 2.9 µM | TGI (SN12C renal): 62.2 µM | GI50 (UACC-257 melanoma): 14.6 µM | TGI (UACC-257 melanoma): 62.8 µM | GI50 (HCT-15 colon): 4.45 µM | TGI (HCT-15 colon): 44.5 µM | GI50 (A549 NSCLC): 3.53 µM | TGI (A549 NSCLC): 86.5 µM | GI50 (KM12 colon): 4.47 µM | TGI (KM12 colon): 31.6 µM | GI50 (OVCAR-5 ovarian): 5.77 µM | TGI (OVCAR-5 ovarian): 66 µM | GI50 (OVCAR-3 ovarian): 15.5 µM | TGI (OVCAR-3 ovarian): 72.6 µM | GI50 (CAKI-1 renal): 0.158 µM | TGI (CAKI-1 renal): 1.58 µM | GI50 (RPMI-8226 leukemia): 2.14 µM | TGI (RPMI-8226 leukemia): 19.6 µM | GI50 (EKVX NSCLC): 5.04 µM | TGI (EKVX NSCLC): 63.4 µM | GI50 (T-47D breast): 12.5 µM | TGI (T-47D breast): 61.9 µM | GI50 (HCT-116 colon): 2.1 µM | TGI (HCT-116 colon): 36.7 µM | GI50 (HCC-2998 colon): 11.8 µM | TGI (HCC-2998 colon): 40.1 µM | GI50 (TK-10 renal): 0.275 µM | TGI (TK-10 renal): > 100 µM | GI50 (NCI-H460 lung): 4.1 µM | TGI (NCI-H460 lung): 28.9 µM | GI50 (IGROV1 ovarian): 7.75 µM | TGI (IGROV1 ovarian): 45.9 µM | GI50 (SF-295 CNS): 10.7 µM | TGI (SF-295 CNS): 40.1 µM | GI50 (SW-620 colon): 4.15 µM | TGI (SW-620 colon): > 100 µM | GI50 (M14 melanoma): 16.4 µM | TGI (M14 melanoma): 35.4 µM | GI50 (A498 renal): 12.8 µM | TGI (A498 renal): 46.5 µM | GI50 (SK-OV-3 ovarian): 4.1 µM | TGI (SK-OV-3 ovarian): 77.2 µM | GI50 (UACC-62 melanoma): 4.09 µM | TGI (UACC-62 melanoma): 17.1 µM | GI50 (SF-268 CNS): 3.05 µM | TGI (SF-268 CNS): 81.1 µM | GI50 (NCI-H226 lung): 3.3 µM | TGI (NCI-H226 lung): 72.8 µM | GI50 (OVCAR-4 ovarian): 14.9 µM | TGI (OVCAR-4 ovarian): 59.4 µM | GI50 (ACHN renal): 1.38 µM | TGI (ACHN renal): 42.4 µM | GI50 (HL-60(TB) leukemia): 2.42 µM | TGI (HL-60(TB) leukemia): 10.9 µM
